Laboratory results reported in ChEMBL document CHEMBL3132769, “Fragment growing to retain or alter the selectivity of anchored kinase hinge-binding fragments” (Medchemcomm, 2014).

Columns and labels:
[1] = target: T1, Serine/threonine-protein kinase 3 (Homo sapiens) (UniProt Q13188); experiment: Inhibition of human full length MST2 expressed in baculovirus assessed as substrate phosphorylation using fluorescence-labelled peptides as substrate at […] after 90 mins by microfluidic peptide phosphorylation assay
T1 sequence (whole entry): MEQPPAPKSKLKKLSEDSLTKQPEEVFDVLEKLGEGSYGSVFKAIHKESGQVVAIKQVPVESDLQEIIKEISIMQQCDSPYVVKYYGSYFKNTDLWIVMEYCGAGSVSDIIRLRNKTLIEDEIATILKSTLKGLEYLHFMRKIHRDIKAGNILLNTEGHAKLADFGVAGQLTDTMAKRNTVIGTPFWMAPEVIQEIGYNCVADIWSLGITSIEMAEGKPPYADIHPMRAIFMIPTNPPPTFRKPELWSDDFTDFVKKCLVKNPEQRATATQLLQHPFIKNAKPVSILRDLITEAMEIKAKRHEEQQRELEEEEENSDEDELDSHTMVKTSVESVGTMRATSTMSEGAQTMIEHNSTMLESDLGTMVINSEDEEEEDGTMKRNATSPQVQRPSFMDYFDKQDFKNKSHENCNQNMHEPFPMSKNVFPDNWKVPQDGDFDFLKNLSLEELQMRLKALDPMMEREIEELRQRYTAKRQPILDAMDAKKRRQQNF

[2] = target: Ribosomal protein S6 kinase alpha-3 (Homo sapiens) (UniProt P51812); experiment: Inhibition of human full length RSK2 expressed in baculovirus assessed as substrate phosphorylation using fluorescence-labelled peptides as substrate at […] after 90 mins by microfluidic peptide phosphorylation assay
Ribosomal protein S6 kinase alpha-3 (Homo sapiens), sequence (P51812 whole entry): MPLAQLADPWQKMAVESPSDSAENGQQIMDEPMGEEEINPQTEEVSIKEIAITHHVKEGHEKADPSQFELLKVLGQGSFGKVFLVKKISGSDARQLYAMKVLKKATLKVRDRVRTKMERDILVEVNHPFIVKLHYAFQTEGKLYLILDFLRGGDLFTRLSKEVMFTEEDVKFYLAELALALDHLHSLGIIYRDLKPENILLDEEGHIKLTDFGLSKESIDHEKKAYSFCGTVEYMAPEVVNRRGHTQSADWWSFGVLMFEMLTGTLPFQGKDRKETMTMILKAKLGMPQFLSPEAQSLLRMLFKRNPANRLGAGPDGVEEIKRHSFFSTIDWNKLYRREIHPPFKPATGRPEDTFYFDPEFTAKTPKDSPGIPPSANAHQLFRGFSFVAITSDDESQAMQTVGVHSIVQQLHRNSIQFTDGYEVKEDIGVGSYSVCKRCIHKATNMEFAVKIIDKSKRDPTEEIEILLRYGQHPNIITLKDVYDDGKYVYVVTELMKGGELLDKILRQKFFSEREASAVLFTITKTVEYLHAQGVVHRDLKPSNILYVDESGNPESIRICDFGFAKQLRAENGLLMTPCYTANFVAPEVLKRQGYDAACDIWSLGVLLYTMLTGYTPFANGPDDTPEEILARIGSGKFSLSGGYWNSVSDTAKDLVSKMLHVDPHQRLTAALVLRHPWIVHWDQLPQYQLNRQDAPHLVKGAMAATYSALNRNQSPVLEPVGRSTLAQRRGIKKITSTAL

[3] = target: T2, Cytoplasmic tyrosine-protein kinase BMX (Homo sapiens) (UniProt P51813); experiment: Inhibition of human full length BMX expressed in baculovirus assessed as substrate phosphorylation using fluorescence-labelled peptides as substrate at 70 uM after 90 mins by microfluidic peptide phosphorylation assay
T2 sequence (whole entry): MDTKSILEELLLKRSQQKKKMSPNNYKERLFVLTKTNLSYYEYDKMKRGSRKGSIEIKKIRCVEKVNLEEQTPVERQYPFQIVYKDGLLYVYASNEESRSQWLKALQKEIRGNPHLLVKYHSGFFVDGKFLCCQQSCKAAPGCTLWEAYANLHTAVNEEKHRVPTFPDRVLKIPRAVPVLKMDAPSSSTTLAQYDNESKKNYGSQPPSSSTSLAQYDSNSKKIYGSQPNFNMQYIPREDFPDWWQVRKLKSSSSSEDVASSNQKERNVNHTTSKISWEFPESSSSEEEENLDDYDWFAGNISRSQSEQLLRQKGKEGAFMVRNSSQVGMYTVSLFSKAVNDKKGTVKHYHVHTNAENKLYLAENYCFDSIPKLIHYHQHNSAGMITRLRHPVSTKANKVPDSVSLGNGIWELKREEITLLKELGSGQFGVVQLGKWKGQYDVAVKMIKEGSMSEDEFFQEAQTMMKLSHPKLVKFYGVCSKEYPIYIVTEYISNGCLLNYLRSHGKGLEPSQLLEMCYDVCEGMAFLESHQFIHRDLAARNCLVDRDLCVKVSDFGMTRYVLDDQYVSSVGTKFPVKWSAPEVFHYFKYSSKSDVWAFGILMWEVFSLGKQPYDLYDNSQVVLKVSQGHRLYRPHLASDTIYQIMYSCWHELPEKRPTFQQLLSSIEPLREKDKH

[4] = target: T3, Interleukin-1 receptor-associated kinase 4 (Homo sapiens) (UniProt Q9NWZ3); experiment: Inhibition of human IRAK4 catalytic domain expressed in baculovirus assessed as substrate phosphorylation using fluorescence-labelled peptides as substrate at 2 uM after 90 mins by microfluidic peptide phosphorylation assay
T3 sequence (whole entry): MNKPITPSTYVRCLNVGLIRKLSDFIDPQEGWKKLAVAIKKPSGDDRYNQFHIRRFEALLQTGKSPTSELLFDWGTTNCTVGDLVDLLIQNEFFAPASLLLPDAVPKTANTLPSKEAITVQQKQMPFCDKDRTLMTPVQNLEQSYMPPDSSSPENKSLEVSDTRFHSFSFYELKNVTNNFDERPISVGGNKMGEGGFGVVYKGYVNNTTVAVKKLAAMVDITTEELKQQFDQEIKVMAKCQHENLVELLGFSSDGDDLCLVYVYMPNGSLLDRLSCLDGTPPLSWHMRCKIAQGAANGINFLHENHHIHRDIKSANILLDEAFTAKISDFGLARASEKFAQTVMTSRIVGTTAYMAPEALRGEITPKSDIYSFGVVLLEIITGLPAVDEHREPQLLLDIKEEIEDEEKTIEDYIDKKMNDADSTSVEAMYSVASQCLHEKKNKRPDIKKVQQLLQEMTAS

[5] = target: T4, Inhibitor of nuclear factor kappa-B kinase subunit beta (Homo sapiens) (UniProt O14920); experiment: Inhibition of human full length IKK beta expressed in baculovirus assessed as substrate phosphorylation using fluorescence-labelled peptides as substrate at 8 uM after 90 mins by microfluidic peptide phosphorylation assay
T4 sequence (whole entry): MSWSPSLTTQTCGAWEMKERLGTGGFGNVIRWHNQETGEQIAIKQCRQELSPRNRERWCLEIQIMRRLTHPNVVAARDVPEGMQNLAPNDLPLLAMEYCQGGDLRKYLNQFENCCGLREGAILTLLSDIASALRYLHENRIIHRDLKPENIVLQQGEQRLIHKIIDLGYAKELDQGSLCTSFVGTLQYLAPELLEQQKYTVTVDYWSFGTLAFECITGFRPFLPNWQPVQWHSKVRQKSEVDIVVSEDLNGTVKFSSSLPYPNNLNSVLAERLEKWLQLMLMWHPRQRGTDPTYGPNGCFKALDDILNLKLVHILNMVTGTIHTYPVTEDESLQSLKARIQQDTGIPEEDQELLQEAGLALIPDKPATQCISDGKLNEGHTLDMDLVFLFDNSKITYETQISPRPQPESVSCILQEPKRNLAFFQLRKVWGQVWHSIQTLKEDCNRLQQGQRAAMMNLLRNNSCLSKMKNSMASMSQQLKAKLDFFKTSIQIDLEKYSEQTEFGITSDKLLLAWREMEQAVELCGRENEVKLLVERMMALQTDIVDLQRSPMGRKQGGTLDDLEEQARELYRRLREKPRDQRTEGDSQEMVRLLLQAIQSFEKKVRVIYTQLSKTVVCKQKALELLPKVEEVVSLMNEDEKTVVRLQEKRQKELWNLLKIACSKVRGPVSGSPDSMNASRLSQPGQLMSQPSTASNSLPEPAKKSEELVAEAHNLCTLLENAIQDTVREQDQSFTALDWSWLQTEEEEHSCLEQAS

For `COC(=O)c1cnc(Nc2cnc(C#N)cn2)cc1NCC1CCNCC1`, the inhibition [1] was 0.5% and the inhibition [2] was 42%.
Compound `CNCc1ccc(-c2ncnc3[nH]cnc23)cc1` has an inhibition [3] of 0%.
`NC1CCN(c2ncnc3[nH]ccc23)CC1` was tested, and the inhibition [4] was 1.5%.
Work on `NCC1CCN(c2ncnc3[nH]ccc23)CC1` yielded an inhibition [5] of 13.5%.
